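Five concentrations, 48 hours, 96-well plates. TGI: total growth inhibition.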
Assays:
Assay in all cases: inhibition of tumour cell growth, NCI panel, 48 h
786-0 renal = tested on: 786-0 renal
A549 NSCLC = tested on: A549 NSCLC
HOP-62 NSCLC = tested on: HOP-62 NSCLC
HOP-92 NSCLC = tested on: HOP-92 NSCLC
K-562 leukemia = tested on: K-562 leukemia
KM12 colon = tested on: KM12 colon
MALME-3M melanoma = tested on: MALME-3M melanoma
MDA-MB-435 = tested on: MDA-MB-435
MDA-N = tested on: MDA-N
NCI-H23 lung = tested on: NCI-H23 lung
NCI-H522 lung = tested on: NCI-H522 lung
OVCAR-4 ovarian = tested on: OVCAR-4 ovarian
OVCAR-5 ovarian = tested on: OVCAR-5 ovarian
OVCAR-8 ovarian = tested on: OVCAR-8 ovarian
PC-3 prostate = tested on: PC-3 prostate
SNB-75 CNS = tested on: SNB-75 CNS
SW-620 colon = tested on: SW-620 colon

SMILES	TGI (786-0 renal) [µM]	TGI (A549 NSCLC) [µM]	TGI (HOP-62 NSCLC) [µM]	TGI (HOP-92 NSCLC) [µM]	TGI (K-562 leukemia) [µM]	TGI (KM12 colon) [µM]	TGI (MALME-3M melanoma) [µM]	TGI (MDA-MB-435) [µM]	TGI (MDA-N) [µM]	TGI (NCI-H23 lung) [µM]	TGI (NCI-H522 lung) [µM]	TGI (OVCAR-4 ovarian) [µM]	TGI (OVCAR-5 ovarian) [µM]	TGI (OVCAR-8 ovarian) [µM]	TGI (PC-3 prostate) [µM]	TGI (SNB-75 CNS) [µM]	TGI (SW-620 colon) [µM]
C=C1C(=O)O[C@H]2C/C(C)=C/CC[C@@]3(C)O[C@](C)(CC[C@@H]3I)[C@@H](I)C[C@@H]12	10.9	18.2	15.6	13	29.9	18.5	14.7	11.7	10.9	18.5	8.64	14.3	26.2	10.1	22.9	12.4	12.4
Cc1cc(S(=O)(=O)Nc2n[nH]c(Nc3ccc(Cl)cc3)n2)c(S)cc1Cl	> 100	> 100	> 100	> 100	> 100	> 100	> 100	> 100	> 100	> 100	> 100	> 100	> 100	> 100	> 100	> 100	> 100
CC(C)=CCC[C@@H](C)/C=C/C=C(\C)C(=O)CC[C@@H]1CC[N@+]2(C)CCCC[C@H]12	> 100	> 100	> 100	> 100	> 100	> 100	> 100	> 100	> 100	> 100	> 100	> 100	> 100	> 100	> 100	> 100	> 100
CN(C)c1ccc(C=Nc2ccc(-c3nc4ccccc4[nH]3)cc2)cc1	> 100	> 100	> 100	> 100	> 100	> 100	> 100	> 100	> 100	> 100	> 100	> 100	> 100	> 100	> 100	> 100	> 100
O=c1ccn(CC2(CO)CCC2)c(=O)[nH]1	> 100	> 100	> 100	> 100	> 100	> 100	> 100	> 100	> 100	> 100	> 100	> 100	> 100	> 100	> 100	> 100	> 100

From PubChem BioAssay (NCI)
